This assay concerns the target T1, mGlyT-1b (Mus musculus, UniProt P28571).
T1 construct: host or cells: Flp-in CHO cells, stably transfected
T1 sequence (P28571 1-651 isoform P28571-2): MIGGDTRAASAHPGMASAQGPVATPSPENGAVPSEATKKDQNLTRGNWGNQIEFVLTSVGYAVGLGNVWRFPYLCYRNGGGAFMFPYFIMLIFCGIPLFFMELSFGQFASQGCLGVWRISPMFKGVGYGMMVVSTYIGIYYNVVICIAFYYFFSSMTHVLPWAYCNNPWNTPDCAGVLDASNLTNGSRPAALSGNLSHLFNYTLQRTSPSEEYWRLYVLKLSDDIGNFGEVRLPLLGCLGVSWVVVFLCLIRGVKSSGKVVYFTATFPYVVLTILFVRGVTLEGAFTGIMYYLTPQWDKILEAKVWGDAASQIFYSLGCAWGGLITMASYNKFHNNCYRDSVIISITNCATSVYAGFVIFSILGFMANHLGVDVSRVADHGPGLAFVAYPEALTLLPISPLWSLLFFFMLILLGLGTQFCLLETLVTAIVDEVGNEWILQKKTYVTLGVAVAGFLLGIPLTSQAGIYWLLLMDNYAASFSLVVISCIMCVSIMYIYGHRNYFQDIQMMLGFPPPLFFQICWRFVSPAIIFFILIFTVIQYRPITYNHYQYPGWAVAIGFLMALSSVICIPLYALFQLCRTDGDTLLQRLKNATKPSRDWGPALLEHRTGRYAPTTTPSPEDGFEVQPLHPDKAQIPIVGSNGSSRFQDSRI
The assay can be described thus: Glycine uptake inhibition assay (mGlyT-1b). The note with it: inhibition of [3H]-glycine uptake in Flp-in-CHO cells stably transfected with mGlyT1b cDNA; 20 min at 22° C. It is filed as cell-based. How it is done:
DMEM complete medium: Nutrient mixture F-12 (Gibco Life-technologies), fetal bovine serum (FBS) 5%, (Gibco life technologies), Penicillin/Streptomycin 1% (Gibco life technologies), Hygromycin 0.6 mg/ml (Gibco life technologies), Glutamine 1 mM Gibco life technologies)
Uptake buffer (UB): 150 mM NaCl, 10 mM Hepes-Tris, pH 7.4, 1 mM CaCl2, 2.5 mM KCl, 2.5 mM MgSO4, 10 mM (+) D-glucose. Flp-in™—CHO (Invitrogen Cat n° R758-07)cells stably transfected with mGlyT1b cDNA.
Glycine uptake inhibition assay (mGlyT-1b)
On Day 1 mammallian cells, (Flp-in™—CHO), transfected with mGlyT-1b cDNA, were plated at the density of 40,000 cells/well in complete F-12 medium, without hygromycin in 96-well culture plates. On day 2, the medium was aspirated and the cells were washed twice with uptake buffer (UB). The cells were then incubated for 20 min at 22° C. with either (i) no potential competitor, (ii) 10 mM non-radioactive glycine, (iii) a concentration of a potential inhibitor. A range of concentrations of the potential inhibitor was used to generate data for calculating the concentration of inhibitor resulting in 50% of the effect (e.g. IC50, the concentration of the competitor inhibiting glycine uptake of 50%). A solution was then immediately added containing [^3H]-glycine 60 nM (11-16 Ci/mmol) and 25 μM non-radioactive glycine. The plates were incubated with gentle shaking and the reaction was stopped by aspiration of the mixture and washing (three times) with ice-cold UB. The cells were lysed with scintillation liquid, shaken 3 hours and the radioactivity in the cells was counted using a scintillation counter.
Broadly, the IC50 is the concentration needed to halve the response being measured. A higher IC50 goes with weaker potency in that assay. Take `CNS(=O)(=O)c1ccc(N2CCCCC2)c(C(=O)N2CCN(c3ccc(C(C)=O)cc3F)CC2)c1` [Example 245, 3-[4-(4-Acetyl-2-fluoro-phenyl)-piperazine-1-carbonyl]-N-methyl-4-piperidin-1-yl-benzene-sulfonamide]: the IC50 is 18 nM.

`CC(=O)c1ccc(N2CCN(C(=O)c3cc([N+](=O)[O-])ccc3N3CCCC3)CC2)c(F)c1` [Example 16, 1-{3-Fluoro-4-[4-(5-nitro-2-pyrrolidin-1-yl-benzoyl)-piperazin-1-yl]-phenyl}-ethanone] yielded an IC50 of 12 nM.

Take `CC(=O)c1ccc(N2CCN(C(=O)c3cc([N+](=O)[O-])ccc3NC3CCCCC3)CC2)c(F)c1` [Example 6, 1-{4-[4-(2-Cyclohexylamino-5-nitro-benzoyl)-piperazin-1-yl]-3-fluoro-phenyl}-ethanone]: half-maximal inhibition (IC50) was put at 10 nM.

Consider `CNS(=O)(=O)c1ccc(N2CCCC2)c(C(=O)N2CCN(c3ccc(C(F)(F)F)c(F)c3)CC2)c1` [Example 236, 3-[4-(3-Fluoro-4-trifluoromethyl-phenyl)-piperazine-1-carbonyl]-N-methyl-4-pyrrolidin-1-yl-benzenesulfonamide], for which it took 4 nM to reach half-maximal inhibition (IC50).

In turn, `CC(=O)c1ccc(N2CCN(C(=O)c3cc([N+](=O)[O-])ccc3N3CCCCC3)CC2)c(F)c1` [Example 27, 1-{3-Fluoro-4-[4-(5-nitro-2-piperidin-1-yl-benzoyl)-piperazin-1-yl]-phenyl}-ethanone] had an IC50 of 1.2 nM.

Take `CNS(=O)(=O)c1ccc(N2CCCCC2)c(C(=O)N2CCN(c3ccc(C#N)cc3F)CC2)c1` [Example 247, 3-[4-(4-Cyano-2-fluoro-phenyl)-piperazine-1-carbonyl]-N-methyl-4-piperidin-1-yl-benzene-sulfonamide]: the IC50 is 14 nM.

On to `CNS(=O)(=O)c1ccc(N2CCCCC2)c(C(=O)N2CCN(c3ccc(C#N)cc3)CC2)c1` [Example 246, 3-[4-(4-Cyano-phenyl)-piperazine-1-carbonyl]-N-methyl-4-piperidin-1-yl-benzenesulfonamide], for which half-maximal inhibition (IC50) required 11 nM.

In the case of `CC(=O)c1ccc(N2CCN(C(=O)c3cc([N+](=O)[O-])ccc3NCC(C)C)CC2)c(F)c1` [Example 19, 1-{3-Fluoro-4-[4-(2-isobutylamino-5-nitro-benzoyl)-piperazin-1-yl]-phenyl}-ethanone], the half-inhibitory concentration (IC50) turned out to be 3 nM.

Molecule `CC(=O)c1ccc(N2CCN(C(=O)c3cc([N+](=O)[O-])ccc3N3CCSCC3)CC2)c(F)c1` [Example 42, 1-{3-Fluoro-4-[4-(5-nitro-2-thiomorpholin-4-yl-benzoyl)-piperazin-1-yl]-phenyl}-ethanone] displayed an IC50 of 3.5 nM.

Turning to `CC(=O)c1ccc(N2CCN(C(=O)c3cc([N+](=O)[O-])ccc3N3CCCC3C)CC2)c(F)c1` (stereo not shown) [Example 38, 1-(3-Fluoro-4-{4-[2-(2-methyl-pyrrolidin-1-yl)-5-nitro-benzoyl]-piperazin-1-yl}-phenyl)-ethanone], inhibition was half-maximal at 8 nM (IC50).

Molecule `CC(=O)c1ccc(N2CCN(C(=O)c3cc([N+](=O)[O-])ccc3N3CCCCC3C)CC2)c(F)c1` (stereo not shown) [Example 35, 1-(3-Fluoro-4-{4-[2-(2-methyl-piperidin-1-yl)-5-nitro-benzoyl]-piperazin-1-yl}-phenyl)-ethanone] had an IC50 of 6 nM.

`CNS(=O)(=O)c1ccc(N2CCCC2)c(C(=O)N2CCN(c3ccc(C(F)(F)F)cc3)CC2)c1` [Example 129, N-Methyl-4-pyrrolidin-1-yl-3-[4-(4-trifluoromethyl-phenyl)-piperazine-1-carbonyl]-benzenesulfonamide]: it took 5 nM to reach half-maximal inhibition (IC50).

Molecule `CNS(=O)(=O)c1ccc(N2CCCCC2)c(C(=O)N2CCN(c3ccc(C#N)c(F)c3)CC2)c1` [Example 248, 3-[4-(4-Cyano-3-fluoro-phenyl)-piperazine-1-carbonyl]-N-methyl-4-piperidin-1-yl-benzenesulfonamide] showed an IC50 of 10 nM.

As for `CC(=O)c1ccc(N2CCN(C(=O)c3cc(S(C)(=O)=O)ccc3N3CCCC3)CC2)c(F)c1` [Example 83, 1-{3-Fluoro-4-[4-(5-methanesulfonyl-2-pyrrolidin-1-yl-benzoyl)-piperazin-1-yl]-phenyl}-ethanone], the IC50 came out at 19 nM.

With `CC(=O)c1ccc(N2CCN(C(=O)c3cc([N+](=O)[O-])ccc3N3CCOCC3)CC2)c(F)c1` [Example 1, 1-{4-[4-(2-Morpholin-4-yl-5-nitro-benzoyl)-piperazin-1-yl]-3-fluoro-phenyl}-ethanone], the IC50 is 15 nM.

For the molecule `C=CCN(C)c1ccc([N+](=O)[O-])cc1C(=O)N1CCN(c2ccc(C(C)=O)cc2F)CC1` [Example 43, 1-(4-{4-[2-(Allyl-methyl-amino)-5-nitro-benzoyl]-piperazin-1-yl}-3-fluoro-phenyl)-ethanone], half-maximal inhibition (IC50) required 9 nM.

The molecule `CS(=O)(=O)c1ccc(N2CCCCC2)c(C(=O)N2CCN(c3ccc(C(F)(F)F)cc3F)CC2)c1` [Example 219, [4-(2-Fluoro-4-trifluoromethyl-phenyl)piperazin-1-yl]-(5-methanesulfonyl-2-piperidin-1-yl-phenyl)-methanone] came in with an IC50 of 17 nM.

On to `CC(=O)c1ccc(N2CCN(C(=O)c3cc(S(C)(=O)=O)ccc3N3CCCCCC3)CC2)c(F)c1` [Example 76, 1-{4-[4-(2-Azepan-1-yl-5-methanesulfonyl-benzoyl)-piperazin-1-yl]-3-fluoro-phenyl}-ethanone], for which the IC50 was determined as 19 nM.

In turn, `CS(=O)(=O)c1ccc(N2CCCCC2)c(C(=O)N2CCN(c3ccc(C#N)cc3F)CC2)c1` [Example 216, 3-Fluoro-4-[4-(5-methanesulfonyl-2-piperidin-1-yl-benzoyl)-piperazin-1-yl]-benzonitrile] yielded an IC50 of 12 nM.

In turn, `CC(=O)c1ccc(N2CCN(C(=O)c3cc([N+](=O)[O-])ccc3NC3CCCC3)CC2)c(F)c1` [Example 21, 1-{4-[4-(2-Cyclopentylamino-5-nitro-benzoyl)-piperazin-1-yl]-3-fluoro-phenyl}-ethanone] yielded an IC50 of 2.3 nM.

As to `CC(=O)c1ccc(N2CCN(C(=O)c3cc([N+](=O)[O-])ccc3NC(C)C)CC2)c(F)c1` [Example 18, 1-{3-Fluoro-4-[4-(2-isopropylamino-5-nitro-benzoyl)-piperazin-1-yl]-phenyl}-ethanone], it took 2.5 nM to reach half-maximal inhibition (IC50).

Consider `CC(=O)c1ccc(N2CCN(C(=O)c3cc([N+](=O)[O-])ccc3N3CCCC(O)C3)CC2)c(F)c1` (stereo not shown) [Example 45, 1-(3-Fluoro-4-{4-[2-(3-hydroxy-piperidin-1-yl)-5-nitro-benzoyl]-piperazin-1-yl}-phenyl)-ethanone], for which 19 nM corresponded to half-maximal inhibition (IC50).

Consider `CNS(=O)(=O)c1ccc(N2CCCC2)c(C(=O)N2CCN(c3ccc(C(F)(F)F)cc3F)CC2)c1` [Example 235, 3-[4-(2-Fluoro-4-trifluoro-methyl-phenyl)-piperazine-1-carbonyl]-N-methyl-4-pyrrolidin-1-yl-benzenesulfonamide], for which the IC50 was determined as 6.5 nM.

The molecule `CNS(=O)(=O)c1ccc(N2CCCCC2)c(C(=O)N2CCN(c3ccc(C(F)(F)F)cc3F)CC2)c1` [Example 250, 3-[4-(2-Fluoro-4-trifluoromethyl-phenyl)-piperazine-1-carbonyl]-N-methyl-4-piperidin-1-yl-benzenesulfonamide] showed an IC50 of 15 nM.

`CS(=O)(=O)c1ccc(N2CCCCC2)c(C(=O)N2CCN(c3ccc(C#N)c(F)c3)CC2)c1` [Example 217, 2-Fluoro-4-[4-(5-methanesulfonyl-2-piperidin-1-yl-benzoyl)-piperazin-1-yl]-benzonitrile] had an IC50 of 16 nM.

For the origin of these results see US7427612B2, “Benzoyl-piperazine derivatives” (Hoffmann-La Roche Inc., priority 2003, dated 2008).
